Data published in patent publication US20230183176A1, “PROCESS OF MAKING N,N'-DIACETYL-L-CYSTINE” (Conopco, Inc., d/b/a UNILEVER, priority 2020, published 2023).

How the values were obtained:
[1] = system: skin cells; assay: potentiating glutathione synthesis within skin cells; type: cell-based; details: compared with cystine
[2] = solubility of NDAC compared with cystine; type: physicochemical
[3] = organic solvents such as alcohols, ethers, esters, ketones; cited from earlier work

| Compound | performance for potentiating glutathione synthesis within skin cells [1] | solubility relative to cystine [2] | solubility in organic solvents [3] |
| --- | --- | --- | --- |
| CC(=O)N[C@@H](CSSC[C@H](NC(C)=O)C(=O)O)C(=O)O [NDAC, N,N′-diacetyl-L-Cystine] | comparable to that of cystine | more soluble |  |
| N[C@@H](CSSC[C@H](N)C(=O)O)C(=O)O [cystine, L-Cystine] |  |  | practically insoluble |
